Measured values: patent US6841661B2, “Glycopeptide antibacterial compounds, compositions containing same and methods of using same” (Princeton Univerisity, priority 1999, dated 2005)
In brackets after ≈: the same amount, converted by molar mass. Several values for one entry are separate records, joined by “and”; a condition that tells them apart may be missing. Equal values may be shown once.

Tests used:
[1] = tested on: E. faecium CL 5053 (VanA); test: microbe, parasite or virus in culture; format: cell-based; conditions: E. faecium CL 5053 (VanA); BHI broth
In short: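 NCCLS M7-A4-based broth microdilution with twofold serial dilutions, incubated at 35° C; medium BHI for enterococci and VISA/MRSA, cation-adjusted Mueller-Hinton for E. coli. Inoculum about 1-5×10^6 CFU/ml (enterococci) or 3-7×10^5 CFU/ml (others); MIC is lowest concentration with no visible growth, read at 18-20 hr for E. coli, 22-24 hr otherwise.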

MRCNS CL 202 (S. haem.) = test: In vitro MIC panel assay (NCCLS broth microdilution); format: cell-based; conditions: MRCNS CL 202 (S. haem.); MH II broth
Text: (§1) National Committee for Clinical Laboratory Standards (NCCLS) guidelines [Methods for Dilution Antimicrobial Susceptibility Tests for Bacteria that Grow Aerobically-Fourth Edition; Approved Standard (NCCLS Document M7-A4, January 1997)] are used to establish the assay, although variations are made to optimize the published method according to the specific needs of the present investigation.
(§2) The test panel currently includes eight enterococci and 13 staphylococci, which are selected based upon their antibiotic susceptibility profiles. The methicillin-sensitive Staphylococcus aureus (MSSA) strain MB2985 (Smith isolate) is used to assesses the potential for serum protein binding of the compounds. The paired Gram-negative strains ASP #49 (envA-) and ASP #50 (envA+) (M. Salvatore/N. Lee) are included to judge membrane effects. Table 3 presents a detailed description of the strains included in the panel, including some of the sources of the strains of bacteria.
(§3) The glycopeptide antibiotic teicoplanin is included whenever possible.
(§4) TSB, containing 10% HS* for vancomycin intermediate S. aurcus/methicillin-resistant S. aureus (VISA/MRSA) strains, is inoculated from an appropriate source (frozen broth or agar slant) and grown approximately 17 hr at 35° C. with shaking at 220 rpm. Cultures are grown in tubes with a volume of 5 ml for enterococci and 2 ml for all other strains.
(§5) Four milliliter (4 ml) overnight culture is added to 36 ml physiological saline to obtain tenfold dilutions (enterococci). Overnight culture (0.4 ml) is added to 39.6 ml saline to obtain 100-fold dilutions (all strains except enterococci). Diluted cultures are maintained on ice until time of inoculation of test plates.
(§6) The number of CFU/mL is determined on BHI agar plates, although this is not done routinely because titers of overnight cultures are relatively constant. The test media include: • BHI for enterococci and VISA/MRSA; • MH II (i.e., cation-adjusted Mueller-Hinton broth) for MRS, MSS and E. coli.; • MH II+HSA for MSSA is prepared as follows: • a. 2×MHII+86mg/ml HSA • b. Dissolve 4.3 g HSA in 50 ml autoclaved 2x MH II. • c. pH to 7.0 by adding 2M MOPS, sodium. • d. Filter sterilize using 0.22 μm Coming cellulose acetate filter, used because of reported low protein binding. • e. 1×MH II+43 mg/ml HSA • f. Dilute the 2×medium twofold and filter as above. 5.8.6. Preparation of Test Plates
(§7) Using a Denley liquid handling system (or similar automatic device), 100 μ1×medium is added to each well in columns 2-12 of a 96-well microtiter dish. Using a multichannel pipettor, 100 μl 2×medium is added to each well in column 1. Plates may be filled on the day prior to assay, wrapped in plastic bags and refrigerated.
(§8) Vancomycin, Schering 29482, and teicoplanin are prepared on a weight per volume basis using 10 mM 3-(N-morpholino)propane-sulfonic acid (MOPS) buffer pH 7. Test compounds are received in solution in appropriate solvent (typically as 1 mg/ml in DMSO) or are dissolved in appropriate solvent prior to further dilution in 10 mM MOPS buffer, ph7. Consistent with NCCLS guidelines, antibiotics are handled aseptically but are not otherwise sterilized.
(§9) 100 μl appropriately diluted antibiotic solution is added to the first well of the designated row of the 96-well microtiter dish and serially diluted by twofold across the row using the Denley liquid handling system. With the aid of a Dynatech NEC 2000 inoculator, each well of the microtiter dish is inoculated with 1.5 μl diluted overnight culture, yielding approximately 1-5×10^6 CFU/ml for enterococci and approximately 3-7×10^5 CFU/ml for all other strains. Dishes are placed in stacks of no more than five, wrapped in plastic bags and incubated at 35° C. • Indication of result(s) type (% INH, IC50, Zone size, etc.) • MIC=minimum inhibitory concentration ps 5.8.9. Interpretation of the Results on the Basis of Activity […]

MRCNS CL 3069 (S. epi.) = test: as above; format: cell-based; conditions: MRCNS CL 3069 (S. epi.); MH II broth
Text: as §1, §2, §3, §4, §5, §6, §7, §8, §9

E. coli ASP #50 (envA+) = test: as above; format: cell-based; conditions: E. coli ASP #50 (envA+); MH II broth
Text: as §1, §2, §3, §4, §5, §6, §7, §8, §9

E. coli ASP #49 (envA-) = test: as above; format: cell-based; conditions: E. coli ASP #49 (envA−); MH II broth
Text: as §1, §2, §3, §4, §5, §6, §7, §8, §9

Pharmacokinetic studies = format: in vivo; conditions: compared with compound 2; stated as and/or
[2] = tested on: Staphylococcus aureus strain MB2985; test: In vivo mouse methicillin-sensitive Staphylococcus aureus septicemia protection; design: species or system ICR female mice
Description: Selected compounds of the invention are tested in an in vivo mouse model. Single dose subcutaneous antibiotic protection from septicemic infections is measured as described by Gill, C. J., J. J. Jackson, L. Gerckens, B. Pelak, R. Thompson, J. Sundelof, H. Kropp and H. Rosen. Antimicrob. Agents Chemother. 42:1996-2001 (1998). Survival is monitored for seven days. ED50's and LD50's are determined by the method of Knudsen and Curtis. J. Am. Stat. Assoc. 42:282-296 (1947). Septicemia is induced in 20 gram ICR (derived from CD-I) female mice by intraperitoneal infection with Staphylococcus aureus strain MB2985. Infection is given i.p. in Brain Heart Broth (BHB) at an infectious inoculum of 1.8×10^7 cfu/mouse. Drug is administered subcutaneously immediately after the infection is initiated.

S. aureus MB 2985 = test: MIC by microdilution in Mueller-Hinton broth (in vivo study); format: cell-based; conditions: inoculum 1.4 × 10^5 cfu/mL in cation adjusted MHB
Description: The MIC is determined by microdilution in Mueller-Hinton broth (MHB) according to the National Committee for Clinical Laboratory Standards guidelines after incubation for 24 hours. Enterococci are tested in cation-supplemented Mueller-Hinton broth at 1.4×10^5 cfu/ml. MIC is defined as the lowest concentration of antibiotic, which inhibits visible growth.

MRSA MH 76 = test: In vitro MIC panel assay (NCCLS broth microdilution); format: cell-based, Staphylococcus aureus; conditions: MRSA MH 76; MH II broth
Text: as §1, §2
The glycopeptide antibiotic teicoplanin is included whenever possible. […]
The number of CFU/mL is determined on BHI agar plates, although this is not done routinely because titers of overnight cultures are relatively constant. […]

[3] = mouse septicemia, S. aureus 2985 i.p. 1.8 × 10^7 cfu/mouse, single s.c. dose at 0 hr, survival seven days

CNC(CC(C)C)C(=O)NC1C(=O)NC(CC(N)=O)C(=O)NC2C(=O)NC3C(=O)NC(C(=O)NC(C(=O)O)c4cc(O)cc(O)c4-c4cc3ccc4O)C(O)c3ccc(c(Cl)c3)Oc3cc2cc(c3OC2OC(CN)C(O)C(O)C2OC2CC(C)(NCc3ccc(OCc4ccc(Cl)c(Cl)c4)cc3)C(O)C(C)O2)Oc2ccc(cc2Cl)C1O (centres unmarked) [Compound 13, Glucos-6-amino-N-4-(3,4-dichlorobenzyloxy)benzyl-vancosamino-vancomycin]
MIC [1]: 1 µg/mL and 2 µg/mL | MIC (MRCNS CL 202 (S. haem.)): 0.12 µg/mL and 0.06 µg/mL | MIC (MRCNS CL 3069 (S. epi.)): 0.06 µg/mL and 0.03 µg/mL | MIC (E. coli ASP #50 (envA+)): >64 µg/mL and 64 µg/mL | MIC (E. coli ASP #49 (envA-)): 16 µg/mL and 8 µg/mL | bioavailability (Pharmacokinetic studies): unexpectedly greater bioavailability | clearance rate (Pharmacokinetic studies): faster clearance rate | tissue distribution (Pharmacokinetic studies): more favorable tissue distribution | ED50/MIC ([2]; S. aureus 2985, ratio of s.c. ED50 to MIC): 3.12 | ED0 (s.c.) [2, 3]: 0.195 mg/kg | ED50 (s.c.) [2, 3]: 0.390 mg/kg | ED100 (s.c.) [2, 3]: 0.780 mg/kg | MIC (S. aureus MB 2985): 0.125 µg/mL (≈ 0.073 µM) | MIC (MRSA MH 76): 0.25 µg/mL (≈ 0.146 µM)
